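Briefly, cells in 96-well plates were exposed to five compound concentrations for 48 h, and endpoints were estimated by linear interpolation. The concentration for full growth arrest is given as TGI.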
Columns and labels:
Assay in all cases: NCI anticancer screen, dose series, 48 h
MCF7 breast = test system: MCF7 breast
OVCAR-3 ovarian = test system: OVCAR-3 ovarian
SF-295 CNS = test system: SF-295 CNS
T-47D breast = test system: T-47D breast
SF-539 CNS = test system: SF-539 CNS
HCT-116 colon = test system: HCT-116 colon
SNB-19 CNS = test system: SNB-19 CNS
SW-620 colon = test system: SW-620 colon
U251 CNS = test system: U251 CNS
HCC-2998 colon = test system: HCC-2998 colon
SF-268 CNS = test system: SF-268 CNS
A498 renal = test system: A498 renal

| SMILES | TGI (MCF7 breast) | TGI (OVCAR-3 ovarian) | TGI (SF-295 CNS) | TGI (T-47D breast) | TGI (SF-539 CNS) | TGI (HCT-116 colon) | TGI (SNB-19 CNS) | TGI (SW-620 colon) | TGI (U251 CNS) | TGI (HCC-2998 colon) | TGI (SF-268 CNS) | TGI (A498 renal) |
| --- | --- | --- | --- | --- | --- | --- | --- | --- | --- | --- | --- | --- |
| Nc1nc(Cl)cc(NCC2(CCO)CCC2)n1 | > 100 µM | > 100 µM | > 10 µM | > 100 µM | > 100 µM | > 100 µM | > 100 µM | > 100 µM | > 100 µM | > 100 µM | – | – |
| CCOC(=O)c1c(N)sc2c1CC(C)CC2 (centres undefined) | > 100 µM | > 100 µM | > 100 µM | > 100 µM | – | > 100 µM | > 100 µM | > 100 µM | > 100 µM | 45.6 µM | > 100 µM | – |
| CC1C(C)(C)C23CC12C1(OCCO1)C3Br (centres undefined) | > 100 µM | > 100 µM | > 100 µM | – | > 100 µM | > 100 µM | > 100 µM | > 100 µM | > 100 µM | > 100 µM | > 100 µM | > 100 µM |
| C=C(/C=C/C=C(\C)CCC=C(C)C)[C@@H]1CC[C@]2([C@H](CCCO)/C(=C(/C)C=O)CC[C@]2(C)O)[C@@H]1O | – | – | 44 µM | – | 25.1 µM | – | 52.7 µM | 40.7 µM | 28.5 µM | 35.6 µM | 41.8 µM | – |
| CC(C)(C)c1ccc2c(c1)OP1(Oc3c(Cl)cc(Cl)c4cccnc34)(O2)Oc2ccc(C(C)(C)C)cc2O1 | 17.3 µM | 13.3 µM | 32.1 µM | – | 21.2 µM | 17.4 µM | 22.8 µM | 23.5 µM | 15.9 µM | 23.4 µM | 24.7 µM | 28.7 µM |
| S=P1(Sc2ccccc2)Oc2ccc3ccccc3c2-c2c(ccc3ccccc23)O1 | > 100 µM | > 100 µM | > 100 µM | – | > 100 µM | > 100 µM | > 100 µM | > 100 µM | > 100 µM | > 100 µM | > 100 µM | > 100 µM |
| O=C1c2ccccc2N(O)C1(c1ccccc1)C1CCCC=C1N1CCOCC1 (centres undefined) | – | > 100 µM | > 100 µM | – | > 100 µM | > 100 µM | > 100 µM | > 100 µM | > 100 µM | > 100 µM | > 100 µM | – |
| COC(=O)C1CCC(=O)N1C(c1ccc(OC)cc1)c1cc(OC)c(OC)c(OC)c1 (centres undefined) | > 100 µM | 0.597 µM | 0.465 µM | > 100 µM | – | – | > 100 µM | > 100 µM | > 100 µM | 0.6 µM | > 100 µM | – |
| c1ccc2c3c(ccc2c1)-c1[nH]ncc1CCO3 | > 100 µM | > 82.1 µM | > 86.1 µM | – | 69.8 µM | > 88.5 µM | > 100 µM | > 100 µM | 51.8 µM | > 100 µM | 98.8 µM | 99.7 µM |
| Cc1nc2c(c(N3CCN(C)CC3)n1)Cc1ccccc1-2 | > 100 µM | – | > 100 µM | > 100 µM | > 100 µM | > 100 µM | 74.6 µM | > 100 µM | > 100 µM | – | > 100 µM | – |
| CN1CCC2(CC1)SSC1(CCN(C)CC1)S2 | – | – | > 100 µM | – | > 100 µM | > 100 µM | > 100 µM | > 100 µM | > 100 µM | – | – | – |
| Cc1c(NC(=S)Nc2ccc([N+](=O)[O-])cc2)c(=O)n(-c2ccccc2)n1C | > 100 µM | > 100 µM | > 100 µM | – | > 100 µM | > 100 µM | > 100 µM | > 100 µM | > 100 µM | > 100 µM | > 100 µM | > 100 µM |
| Cc1nc(OCc2ccccc2)c2ncn(CCO)c2n1 | > 100 µM | > 100 µM | > 100 µM | – | > 100 µM | > 100 µM | > 100 µM | > 100 µM | > 100 µM | – | > 100 µM | > 100 µM |
| COC(=O)c1ccc(NCc2cc(OC)ccc2OC)cc1 | > 100 µM | > 100 µM | – | – | > 100 µM | > 100 µM | > 100 µM | > 100 µM | > 100 µM | > 100 µM | > 100 µM | 78.8 µM |
| CCOP(=O)(CC(=O)C1CC1)OCC | > 100 µM | – | > 100 µM | > 100 µM | > 100 µM | > 100 µM | > 100 µM | > 100 µM | > 100 µM | > 100 µM | > 100 µM | – |
| COC(=O)C1=CO[C@@H](C)[C@@H]2Cn3ccc4c5ccccc5nc-4c3C[C@H]12 | – | > 100 µM | > 100 µM | – | > 100 µM | > 100 µM | > 100 µM | > 100 µM | > 100 µM | – | > 100 µM | > 100 µM |
| COc1ccc(C(=O)/C=C/c2ccc(OCCCCCCCCCCOc3ccc(/C=C/C(=O)c4ccc(OC)cc4)cc3)cc2)cc1 | > 100 µM | – | > 100 µM | > 100 µM | > 100 µM | > 100 µM | > 100 µM | > 100 µM | > 100 µM | > 100 µM | > 100 µM | – |
| O=[N+]([O-])c1ccc(-c2csc(N=Nc3c(O)[nH]c4ccccc34)n2)cc1 | > 100 µM | > 100 µM | > 100 µM | > 100 µM | 39.3 µM | > 100 µM | > 100 µM | > 100 µM | > 100 µM | 50.5 µM | – | – |
